Earlier results, collected in US7374770B2, “Topical composition for follicular delivery of an ornithine decarboxylase inhibitor” (SkinMedica, Inc., priority 2001, dated 2008).

Conditions: undesirable secondary pharmacological effect, known

brain 4-aminobutyric acid levels: increases
SMILES: C#CC(N)CCCN (stereo not shown) [5-hexyne-1,4-diamine]
